Measurements published in ChEMBL document CHEMBL2151039, “Discovery and development of α7 nicotinic acetylcholine receptor modulators” (J Med Chem, 2011).
Where a SMILES comes first, the peptide text is derived from it. Bridges are numbered along the chain shown (N, C = ends).

Legend:
[1] = target: Neuronal acetylcholine receptor subunit alpha-7 (Mus musculus, UniProt P49582); assay: Displacement of [125I]alpha-Bungarotoxin from alpha7 nAchR in mouse hippocampal membranes; type: cell membranes, Hippocampus
Neuronal acetylcholine receptor subunit alpha-7 (Mus musculus, UniProt P49582), sequence (P49582 whole entry): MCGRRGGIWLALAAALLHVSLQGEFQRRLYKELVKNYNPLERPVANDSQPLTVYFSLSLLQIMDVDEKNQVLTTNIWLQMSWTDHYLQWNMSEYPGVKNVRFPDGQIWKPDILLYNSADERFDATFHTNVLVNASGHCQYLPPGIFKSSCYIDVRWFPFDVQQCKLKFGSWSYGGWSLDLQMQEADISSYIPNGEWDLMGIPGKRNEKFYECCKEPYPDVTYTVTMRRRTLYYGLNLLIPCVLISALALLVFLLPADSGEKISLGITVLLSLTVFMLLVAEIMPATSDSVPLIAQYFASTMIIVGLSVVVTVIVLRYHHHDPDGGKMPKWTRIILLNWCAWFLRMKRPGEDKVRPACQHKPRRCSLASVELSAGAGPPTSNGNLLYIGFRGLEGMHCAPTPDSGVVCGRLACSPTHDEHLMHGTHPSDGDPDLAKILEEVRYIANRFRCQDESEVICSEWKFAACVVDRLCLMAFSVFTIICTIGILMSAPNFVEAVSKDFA

[2] = target: Neuronal acetylcholine receptor subunit alpha-7 (Homo sapiens, UniProt P36544); assay: Antagonist activity at human alpha7 nAChR expressed in Xenopus oocyte; type: functional
Neuronal acetylcholine receptor subunit alpha-7 (Homo sapiens, UniProt P36544), sequence (P36544 whole entry): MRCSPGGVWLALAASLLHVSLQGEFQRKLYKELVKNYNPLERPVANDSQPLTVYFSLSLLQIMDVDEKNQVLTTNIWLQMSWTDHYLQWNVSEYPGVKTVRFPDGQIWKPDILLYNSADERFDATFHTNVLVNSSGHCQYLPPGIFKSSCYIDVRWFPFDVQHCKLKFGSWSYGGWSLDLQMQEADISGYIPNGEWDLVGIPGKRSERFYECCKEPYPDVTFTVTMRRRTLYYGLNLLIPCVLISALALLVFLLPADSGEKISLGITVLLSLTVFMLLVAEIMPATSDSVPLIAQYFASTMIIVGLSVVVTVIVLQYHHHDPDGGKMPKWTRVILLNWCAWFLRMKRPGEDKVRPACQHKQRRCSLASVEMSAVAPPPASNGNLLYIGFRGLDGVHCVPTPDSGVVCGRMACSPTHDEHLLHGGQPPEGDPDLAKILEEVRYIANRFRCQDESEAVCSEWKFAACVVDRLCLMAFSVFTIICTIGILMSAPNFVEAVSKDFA

Homo sapiens = species on record: Homo sapiens; assay: Selectivity ratio of IC50 for nAChR to IC50 for human alpha7 nAChR

## CC(C)C[C@@H]1NC(=O)[C@H](CCCNC(=N)N)NC(=O)[C@@H]2CSSC[C@H](NC(=O)[C@H](CCC(=O)O)NC(=O)[C@@H](N)CC(=O)O)C(=O)N[C@@H](CSSC[C@@H](C(=O)N[C@@H](CCCNC(=N)N)C(=O)N[C@@H](CCCNC(=N)N)C(=O)N[C@@H](CCCNC(=N)N)C(=O)O)NC(=O)[C@H](CC(=O)O)NC(=O)[C@H](Cc3cnc[nH]3)NC(=O)[C@@H]3CCCN3C(=O)[C@H](CC(N)=O)NC(=O)[C@H](CC(N)=O)NC1=O)C(=O)N[C@@H](CO)C(=O)N[C@@H](CC(N)=O)C(=O)N1CCC[C@H]1C(=O)N[C@@H](C)C(=O)N2 (H-DECCSNPACRLNNPHDCRRR-OH; disulfide 3-9, 4-17)
[1]
  Ki: 7.04 nM
[2]
  IC50: 1.09 nM
Homo sapiens
  Ratio IC50: > 800
